Data: ChEMBL document CHEMBL3044586, “Design, synthesis, and anticonvulsant screening of some substituted piperazine and aniline derivatives of 5-phenyl-oxazolidin-2,4-diones and 5,5-diphenylimidazolidin-2,4 diones” (Med Chem Res, 2012)
Active and inactive are the calls of the source. The calls are words filed in the database; no cut-off is given here.

What was measured:
[1] = tested on: Mus musculus; experiment: Neurotoxicity against Mus musculus Swiss albino (mouse) assessed as inability to maintain equilibrium on rod at 30 to 300 mg/kg, ip measured after 0.5 hr by rotarod test; type: toxicity, organism-based; parameters: dose 30-300 mg/kg, route intraperitoneal; conditions: in vivo
[2] = tested on: Mus musculus; experiment: Anticonvulsant activity in Mus musculus Swiss albino (mouse) assessed as reduction in maximal electroshock-induced seizure at 300 mg/kg, ip measured after 4 hr; type: functional, organism-based; parameters: dose 300 mg/kg
[3] = tested on: Mus musculus; experiment: Neurotoxicity against Mus musculus Swiss albino (mouse) assessed as inability to maintain equilibrium on rod at 300 mg/kg, ip measured after 4 hr by rotarod test; type: toxicity, organism-based; parameters: dose 300 mg/kg, route intraperitoneal; conditions: in vivo
[4] = tested on: Mus musculus; experiment: Anticonvulsant activity in Mus musculus Swiss albino (mouse) assessed as reduction in maximal electroshock-induced seizure at 30 to 300 mg/kg, ip measured after 0.5 hr; type: functional, organism-based
[5] = tested on: Mus musculus; experiment: Anticonvulsant activity in Mus musculus Swiss albino (mouse) assessed as reduction in maximal electroshock-induced seizure at 30 to 300 mg/kg, ip measured after 4 hr; type: functional, organism-based
[6] = tested on: Mus musculus; experiment: Neurotoxicity against Mus musculus Swiss albino (mouse) assessed as inability to maintain equilibrium on rod at 30 to 300 mg/kg, ip measured after 4 hr by rotarod test; type: toxicity, organism-based; parameters: dose 30-300 mg/kg, route intraperitoneal; conditions: in vivo
[7] = tested on: Rattus norvegicus; experiment: Neurotoxicity against Rattus norvegicus Wistar (rat) assessed as inability to maintain equilibrium on rod at 30 mg/kg, po measured after 0.5 hr by rotarod test; type: toxicity, organism-based; parameters: dose 30 mg/kg, route oral; conditions: in vivo
[8] = tested on: Rattus norvegicus; experiment: Presynaptic agonist activity at 5HT1A receptor in Rattus norvegicus Wistar (rat) assessed as change in rectal temperature at 10 mg/kg, ip measured after 60 min (reference value: 0.0 +/- 0.1 degC); type: functional, organism-based; parameters: dose 10 mg/kg
[9] = tested on: Rattus norvegicus; experiment: Anticonvulsant activity in Rattus norvegicus Wistar (rat) assessed as reduction in maximal electroshock-induced seizures at 30 mg/kg, po measured after 4 hr; type: functional, organism-based; parameters: dose 30 mg/kg
[10] = tested on: Rattus norvegicus; experiment: Presynaptic agonist activity at 5HT1A receptor in Rattus norvegicus Wistar (rat) assessed as change in rectal temperature at 20 mg/kg, ip measured after 90 min (reference value: -0.2 +/- 0.1 degC); type: functional, organism-based; parameters: dose 20 mg/kg
[11] = tested on: Rattus norvegicus; experiment: Anticonvulsant activity in Rattus norvegicus Wistar (rat) assessed as reduction in maximal electroshock-induced seizures at 30 mg/kg, po measured after 0.5 hr; type: functional, organism-based; parameters: dose 30 mg/kg
[12] = tested on: Rattus norvegicus; experiment: Presynaptic agonist activity at 5HT1A receptor in Rattus norvegicus Wistar (rat) assessed as change in rectal temperature at 10 mg/kg, ip measured after 30 min (reference value: -0.1 +/- 0.1 degC); type: functional, organism-based; parameters: dose 10 mg/kg
[13] = tested on: Rattus norvegicus; experiment: Presynaptic agonist activity at 5HT1A receptor in Rattus norvegicus Wistar (rat) assessed as change in rectal temperature at 20 mg/kg, ip measured after 120 min (reference value: 0.0 +/- 0.1 degC); type: functional, organism-based; parameters: dose 20 mg/kg
[14] = tested on: Rattus norvegicus; experiment: Presynaptic agonist activity at 5HT1A receptor in Rattus norvegicus Wistar (rat) assessed as change in rectal temperature at 10 mg/kg, ip measured after 120 min (reference value: 0.0 +/- 0.1 degC); type: functional, organism-based; parameters: dose 10 mg/kg
[15] = tested on: Mus musculus; experiment: Anticonvulsant activity in Mus musculus Swiss albino (mouse) assessed as reduction in maximal electroshock-induced seizure at 30 mg/kg, ip measured after 4 hr; type: functional, organism-based; parameters: dose 30 mg/kg
[16] = tested on: Mus musculus; experiment: Anticonvulsant activity in Mus musculus Swiss albino (mouse) assessed as reduction in maximal electroshock-induced seizure at 100 mg/kg, ip measured after 0.5 hr; type: functional, organism-based; parameters: dose 100 mg/kg
[17] = tested on: Mus musculus; experiment: Binding affinity to 5HT2A receptor in ip dosed Mus musculus Swiss albino (mouse) assessed as effect on +/-DOI-induced head twitching administered 60 min prior to +/-DOI-challenge measured for 20 min; type: functional, organism-based
[18] = tested on: Rattus norvegicus; experiment: Neurotoxicity against Rattus norvegicus Wistar (rat) assessed as inability to maintain equilibrium on rod at 30 mg/kg, po measured after 4 hr by rotarod test; type: toxicity, organism-based; parameters: dose 30 mg/kg, route oral; conditions: in vivo
[19] = tested on: Rattus norvegicus; experiment: Presynaptic agonist activity at 5HT1A receptor in Rattus norvegicus Wistar (rat) assessed as change in rectal temperature at 20 mg/kg, ip measured after 60 min (reference value: 0.0 +/- 0.1 degC); type: functional, organism-based; parameters: dose 20 mg/kg
[20] = tested on: Rattus norvegicus; experiment: Postsynaptic agonist activity at 5HT1A receptor in Rattus norvegicus Wistar (rat) assessed as increase in lower lip retraction at 10 to 20 mg/kg, ip measured after 15 min; type: functional, organism-based
[21] = tested on: Rattus norvegicus; experiment: Presynaptic agonist activity at 5HT1A receptor in Rattus norvegicus Wistar (rat) assessed as change in rectal temperature at 20 mg/kg, ip measured after 30 min (reference value: -0.1 +/- 0.1 degC); type: functional, organism-based; parameters: dose 20 mg/kg
[22] = tested on: Rattus norvegicus; experiment: Presynaptic agonist activity at 5HT1A receptor in Rattus norvegicus Wistar (rat) assessed as change in rectal temperature at 10 mg/kg, ip measured after 90 min (reference value: -0.2 +/- 0.1 degC); type: functional, organism-based; parameters: dose 10 mg/kg
[23] = tested on: Rattus norvegicus; experiment: Postsynaptic antagonist activity at 5HT1A receptor in Rattus norvegicus Wistar (rat) assessed as inhibition of 8-OH-DPAT-induced lower lip retraction at 10 to 20 mg/kg, ip administered 45 min prior to 8-OH-DPAT-challenge measured after 15 min; type: functional, organism-based
[24] = tested on: Mus musculus; experiment: Antagonist activity at 5HT2A receptor in ip dosed Mus musculus Swiss albino (mouse) assessed as inhibition of +/-DOI-induced head twitching administered 60 min prior to +/-DOI-challenge measured for 20 min; type: functional; conditions: read-out: ID50 (the source's name)
[25] = tested on: Mus musculus; experiment: Anticonvulsant activity in Mus musculus Swiss albino (mouse) assessed as reduction in maximal electroshock-induced seizure at 100 mg/kg, ip measured after 4 hr; type: functional, organism-based; parameters: dose 100 mg/kg
[26] = tested on: Mus musculus; experiment: Neurotoxicity against Mus musculus Swiss albino (mouse) assessed as inability to maintain equilibrium on rod at 100 mg/kg, ip measured after 0.5 hr by rotarod test; type: toxicity, organism-based; parameters: dose 100 mg/kg, route intraperitoneal; conditions: in vivo

| Activity [17] | Structure (SMILES) | Activity [1] | Activity [2] | Activity [3] | Activity [4] | Activity [6] | Activity [7] | deltaT [8] | Activity [9] | deltaT [10] | Activity [11] | deltaT [12] | deltaT [13] | deltaT [14] | Activity [18] | deltaT [19] | deltaT [21] | deltaT [22] | also measured |
| --- | --- | --- | --- | --- | --- | --- | --- | --- | --- | --- | --- | --- | --- | --- | --- | --- | --- | --- | --- |
|  | O=C1OC(c2ccccc2)C(=O)N1CCN1CCN(c2ccc([N+](=O)[O-])cc2)CC1 (centres undefined) | Non-toxic | Active | Toxic | inactive |  |  |  |  |  |  |  |  |  |  |  |  |  |  |
|  | O=C1NC(c2ccccc2)(c2ccccc2)C(=O)N1CCN1CCN(c2ccccn2)CC1 | Non-toxic |  |  | inactive | Non-toxic |  |  |  |  |  |  |  |  |  |  |  |  | Activity [5]: inactive |
| inactive | O=C1NC(c2ccccc2)(c2ccccc2)C(=O)N1CCNc1ccc(F)cc1 | Non-toxic |  |  |  | Non-toxic | Non-toxic | -0.7 °C | Active | -2.9 °C | Active | -0.5 °C | -1.5 °C | -0.7 °C | Non-toxic | -2.7 °C | -2.5 °C | -0.9 °C | Activity [15]: Active; Activity [16]: Active; Activity [20]: Active |
|  | O=C1OC(c2ccccc2)C(=O)N1CCNc1ccc(Cl)cc1 (centres undefined) | Non-toxic |  |  |  | Non-toxic | Non-toxic | -0.5 °C | Active | -1.5 °C | Active | -0.2 °C | -1.3 °C | -0.5 °C | Non-toxic | -1.3 °C | -1.2 °C | -0.7 °C | Activity [15]: Active; Activity [16]: Active; inhibition [23]: Active; ED50 [24]: 8 mg/kg |
| inactive | O=C1OC(c2ccccc2)C(=O)N1CCN1CCN(c2ccc(F)cc2)CC1 (centres undefined) | Non-toxic |  |  | inactive | Non-toxic | Non-toxic | -0.4 °C | inactive | -1.4 °C | inactive | -0.6 °C | -1.4 °C | -0.5 °C | Non-toxic | -1.4 °C | -1.5 °C | -0.5 °C | inhibition [23]: Active; Activity [25]: Active |
|  | O=C1NC(c2ccccc2)(c2ccccc2)C(=O)N1CCNc1ccc(O)cc1 | Non-toxic |  |  | inactive | Non-toxic |  |  |  |  |  |  |  |  |  |  |  |  | Activity [5]: inactive |
|  | O=C1NC(c2ccccc2)(c2ccccc2)C(=O)N1CCN1CCN(c2ccc(O)cc2)CC1 | Non-toxic | Active | Toxic | inactive |  |  |  |  |  |  |  |  |  |  |  |  |  |  |
| inactive | O=C1NC(c2ccccc2)(c2ccccc2)C(=O)N1CCN1CCN(c2ccc(F)cc2)CC1 | Non-toxic |  |  | inactive | Non-toxic | Non-toxic | -0.7 °C | Active | -1.6 °C | inactive | -0.9 °C | -1.7 °C | -0.8 °C | Non-toxic | -1.6 °C | -1.7 °C | -0.7 °C | Activity [15]: Active; Activity [20]: Active |
| inactive | COc1ccc(NCCN2C(=O)OC(c3ccccc3)C2=O)cc1 (centres undefined) | Non-toxic |  |  | inactive | Non-toxic | Non-toxic | -0.8 °C | inactive | -1.5 °C | inactive | -0.5 °C | -1.3 °C | -0.7 °C | Non-toxic | -1.5 °C | -1.1 °C | -0.8 °C | inhibition [23]: Active; Activity [25]: Active |
|  | Cc1ccc(N2CCN(CCN3C(=O)NC(c4ccccc4)(c4ccccc4)C3=O)CC2)cc1 |  | Active | Toxic | inactive |  |  |  |  |  |  |  |  |  |  |  |  |  | Activity [26]: Toxic |
|  | O=C1OC(c2ccccc2)C(=O)N1CCNc1ccc(F)cc1 (centres undefined) | Non-toxic | Active | Toxic | inactive |  |  |  |  |  |  |  |  |  |  |  |  |  |  |
